The record followed here is US5352707A, “Method for treating airway congestion” (Harbor Branch Oceanographic Institution, Inc., priority 1992, dated 1994).

Broadly, the IC50 is the midpoint of a concentration-inhibition curve. Read a low IC50 as higher potency.

One experiment addresses T1, H3 receptor (Cavia porcellus, UniProt Q9JI35).
T1 construct: The source of the H3 receptors in this experiment was guinea pig brain; from tissue; host or cells: guinea pig brain membranes
Kind of experiment: H3 Receptor Binding Assay ([3H]R-α-methylhistamine, guinea pig brain membranes). Conditions: 3 nM [3H]R-α-methylhistamine, 30° C., 30 minutes. The procedure: The source of the H3 receptors in this experiment was guinea pig brain. The animals used weighed 400-600 g. The tissue was homogenized using a Polytron in a solution of 50 mM Tris, pH 7.5. The final concentration of tissue in the homogenization buffer was 10% w/v. The homogenates were centrifuged at 1000×g for 10 minutes in order to remove clumps of tissue and debris. The resulting supernatants were then centrifuged at 50,000×g for 20 minutes in order to sediment the membranes, which were next washed 3 times in homogenization buffer (50,000×g for 20 minutes each). The membranes were frozen and stored at -70° C. until needed.
All compounds to be tested were dissolved in DMSO (dimethyl sulfoxide) and then diluted into the binding buffer (50 mM Tris, pH 7.5) such that the final concentration was 2 μg/mL with 0.1% DMSO. Membranes were then added (400 μg of protein) to the reaction tubes. The reaction was started by the addition of 3 nM [^3 H]R-α-methylhistamine (8.8 Ci/mmol) and incubated at 30° C. for 30 minutes. Bound ligand was separated from unbound ligand by filtration, and the amount of radioactive ligand bound to the membranes was quantitated by liquid scintillation spectrometry. All incubations were performed in duplicate and the standard error was less than 10% in all instances.

The test system of a further experiment is guinea pig ileum. Kind of experiment: Guinea Pig Ileum Assay (electrical field stimulated contractions; H3 agonism/antagonism vs Rα-methylhistamine). The format is cell-based. The note with it: for Guinea Pig Ileum: at 1 μg/ml, 1 μM chlorpheniramine in Tyrodes buffer. The procedure:
Male guinea pigs (450-500 g) were sacrificed by cervical dislocation. Portions of the ileum (20-40 cm) were removed and placed in Tyrodes solution (NaCl, 8.0; KCl, 0.2; MgCl2.6H2 O, 0.2; CaCl2. 0.13; NaH2 PO4. 0.06; dextrose, 1.0; NaHCO3, 1.0 g/l). The ilea were cut into 2.5 cm segments, mounted between platinum wire coaxial electrodes and placed in water-jacketed organ baths containing 25 ml of the Tyrodes solution. Bath fluid temperature was maintained at 37° C. and aerated with 95% 02-5%CO2. The muscles were suspended from isometric force transducers (Grass FT023C) under 0.3 g resting tension. Contractions were amplified on a Buxco tension monitor and recorded on a Harvard polygraph. Monophasic rectangular-wave electrical pulses were delivered to the tissues every 60 seconds from a stimulator (model S-48, Grass Instruments Co.). The ileum segments were maximally stimulated with 3 volts at 40 Hz frequency and 1 mseconds duration in 1 pulse train every 60 seconds. The duration of 1 msecond was then decreased by 0.1 msecond until the size of the contraction reached 80% of the maximal response. Once this 80% response was determined it was evoked every 60 seconds throughout the experiment. All experiments were conducted with 1μM of chlorpheniramine present in the Tyrodes buffer.
Rα-methylhistamine inhibits the electrical field stimulated contractions of the guinea pig ileum and was used as the H3 agonist reference standard. H3 agonists were studied for their ability to inhibit the electrical field stimulated contractions and their activity was expressed as a percentage of the maximum Rα-methylhistamine effect. Agonists were tested by addition of logarithmically increasing doses to the bath fluid at intervals of 1 minute. […]
Relative potency for agonists was determined from the pD2 calculations (Furchgott, R.F., The Pharmacology of Vascular Smooth Muscle. Pharm. Rev. 7, 183, 1955.) on 5 separate tissues. Relative potency for antagonists was determined from pA2 calculations (See Furchgott, above) on 15 separate tissues.

T1 sequence (Q9JI35 whole entry): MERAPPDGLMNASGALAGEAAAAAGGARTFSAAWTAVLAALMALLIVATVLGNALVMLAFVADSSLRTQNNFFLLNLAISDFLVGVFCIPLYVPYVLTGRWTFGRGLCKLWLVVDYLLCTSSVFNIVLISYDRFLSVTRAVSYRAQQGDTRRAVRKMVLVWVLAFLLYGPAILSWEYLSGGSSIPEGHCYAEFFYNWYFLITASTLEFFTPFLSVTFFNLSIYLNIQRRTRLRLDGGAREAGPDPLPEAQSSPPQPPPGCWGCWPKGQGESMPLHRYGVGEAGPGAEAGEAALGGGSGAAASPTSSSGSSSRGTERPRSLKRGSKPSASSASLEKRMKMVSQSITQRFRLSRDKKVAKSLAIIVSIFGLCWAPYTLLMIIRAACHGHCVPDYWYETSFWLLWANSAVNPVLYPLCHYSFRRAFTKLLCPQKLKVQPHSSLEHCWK

On H3 receptor, `CN(C)CCCOc1c(Br)cc(CCN(C)C)cc1Br` [Aplysamine-1] gave a half-inhibitory concentration (IC50) of 833 nM. Moreover, in the experiment with guinea pig ileum, the “activity on the guinea pig ileum” value is reported as “active on the guinea pig ileum as an H3 -antagonist” and the “Guinea Pig Ileum” value is “antagonist”.
As to `COC1=C(Br)C(O)C2(C=C1Br)CC(C(=O)NCCc1c[nH]cn1)=NO2` (centres unmarked) [Aerophobin-1], the “H3 receptor Binding IC50” value on H3 receptor worked out at 4.3 µg/mL. The “Guinea Pig Ileum” value in the experiment on guinea pig ileum was “not active”.
